The source of these data is patent publication US11654119B2, “Bioavailable curcumin nanoparticles and methods of making” (NUtech Ventures, priority 2018, dated 2023).

A short description of data set [1]: Solubility of curcumin in ethanol. It counts as physicochemical. The procedure:
Impregnation of curcumin was conducted during the solvent exchange step. Excess curcumin was mixed with ethanol at room temperature (21° C.) and the undissolved curcumin was removed by filtration through a 0.45 μm pore-size filter. […] Afterwards, curcumin impregnated alcogels were dried using the same SC-CO2 drying conditions. Moreover, curcumin impregnation was investigated at 60° C., where higher solubility of curcumin in ethanol was obtained. Curcumin impregnated NSAs were called CUR-NSA-60° C. or CUR-NSA-RT depending on the impregnation temperature of 60° C. or room temperature (RT), respectively. Curcumin impregnated NSAs were stored in the freezer at −18° C. until characterized.
Impregnation capacity of the Curcumin-NSA-RT, where impregnation was performed at room temperature (21° C.), was 14.4 mg curcumin/g NSA (FIG. 5). When temperature of the impregnation increased to 60° C. […] Impregnation capacity was basically based on the solubility of curcumin in ethanol. […] The reason for a drastic increase in the impregnation capacity at 60° C. was the crystallization of curcumin in the saturated ethanolic curcumin solution on the surface of the NSA due to temperature drop to 40° C. during SC-CO2 drying. Crystallization from ethanol before the supercritical conditions reached led to the formation of long curcumin crystals (data not shown) which impacted the bioaccessibility of curcumin after simulated digestion (FIG. 10).

The conditions of data set [2]: 10 MPa and 40° C.; cited from earlier work.
The conditions of data set [3]: in humans; cited from earlier work.
The nature of data set [4]: Plasma CUR concentration over time after administration (bioavailability in rats). It counts as in vivo. Particulars: rat, 0-90 minutes after administration, read-out: maximum concentration of CUR in the plasma (Cmax). The text has this:
FIG. 12 depicts the bioavailability of curcumin (CUR) impregnated in the nanoporous starch aerogels in rats as analyzed in Example 2.
The plasma CUR concentration was monitored over time after administration.

Data set [5] is described as follows: Simulated gastrointestinal digestion (oral, gastric, intestinal); bioaccessible fraction. In kind it is in vitro ADME. Particulars: after simulated digestion.
Protocol: Gastrointestinal digestion of the samples was simulated adopting the method described by Minekus et al., 2014, Food & Function, 5(6), 1113-1124. Gastrointestinal digestion consisted of a sequential oral, gastric and intestinal digestion. Simulated salivary fluid (SSF), simulated gastric fluid (SGF) and simulated intestinal fluid (SIF) were prepared using a method reported previously (Minekus et al., 2014). […] The experiments were performed in 50 mL Erlenmeyer flasks. All digestion experiments were carried out in triplicate.
First, the sample (0.25 g) and SSF electrolyte stock solution (3.5 mL) were added into the flask. Then, 0.5 mL of α-amylase solution (750 U/mL) was included to have a final mixture with 75 U/mL. Subsequently, 25 μL of 0.3 M CaCl2 and 0.975 mL of deionized water were added. Finally, pH of the mixture was adjusted to pH 7.0 and the mixture was agitated in a shaking water bath (Precision SWB 27, Thermo Fisher Scientific, NH, USA) for 30 sec at 37° C. with a mixing rate of 150 rpm (Mennah-Govela & Bornhorst, 2016; Minekus et al., 2014).
After the oral digestion, oral bolus (5 mL) was mixed with SGF electrolyte stock solution (3.25 mL, pH 3.0) and the pH was adjusted to 3.0 using 1 M HCl (75 μL). […] The pH of the mixture was monitored and kept at pH 3.0 using 1 M HCl. […]

Regarding `COc1cc(/C=C/C(=O)CC(=O)/C=C/c2ccc(O)c(OC)c2)ccc1O` [crude curcumin, Curcumin (diferuloylmethane)], the “increase in the solubility of curcumin in ethanol” value in data set [1] (21 to 60° C.) stood at 3.9 fold. Besides, the “solubility of curcumin in ethanol” value was determined as 4.4±0.2 mg curcumin/mL ethanol in data set [1] (21° C.) and 17.2±0.3 mg curcumin/mL ethanol in data set [1] (60° C.). For the same molecule, in data set [2], the “solubility of curcumin in SC-CO2” value is around 0.4 ng/mL. The bioavailability in data set [3] is reported as around 1%. Besides, in data set [4], the Cmax is 500 nM. In data set [5], the “concentration of curcumin in the bioaccessible fraction” value is 3 µg/mL.
